Laboratory results from patent publication US20090123389A1, “Methods for modulating Th17 cell development in the treatment and prevention of cellulite” (priority 2007, published 2009).

Key:
[1] = tested on: CD4+ CD25− T cells; assay: Th17 differentiation / IL-17 expression of activated CD4+ CD25− T cells (TGFβ plus IL-6); format: cell-based, mouse; details: for inhibition of IL-17 expression by HPLC-purified enantiomers: TGFβ plus IL-6, day 4, compared with racemic mix
Method: Low doses of halofuginone (HF) were tested to determine the ability of HF to enhance Treg differentiation, while suppressing Th17 differentiation. Naïve CD4+ T cells (CD4+ CD25−) were isolated from the spleen and peripheral lymph nodes of C57B/6 mice. T cells were then activated using anti-CD3 (0.3 μg/ml) and anti-CD28 (0.5 μg/ml) antibodies either in media alone (row 1, 4), TGFβ alone (3 ng/ml—row 2, 5) or TGFβ (3 ng/ml) plus IL-6 (30 ng/ml) (row 3, 6). […] T cells were cultured for 3 days and CD25 and Foxp3 expression (Treg marker genes) was determine by FACS staining and flow cytometric analyses. Simultaneously, T cells were harvested and re-stimulated for 4 hours using phorbol myristic acetate (PMA; 10 nM), Ionomycin (1 μM) and cytokine secretion was prevented using brefeldin A (20 μg/ml). Following stimulation, the production of IL-17 and IFNγ were determined by intracellular staining and analyzed via flow cytometry.
The dose-response of HF on CD4+ T cell proliferation, activation (i.e. CD25 upregulation) and differentiation to Th1, Th2 and Th17 lineages were evaluated. Purified murine naïve CD4+ CD25− T cells were activated using anti-CD3 (0.3 μg/ml) and anti-CD28 (0.5 μg/ml) antibodies and varying amounts of HF was added to each T cell culture condition (1.25 nM-40 nM). CD4+ T cell proliferation was monitored by CFSE dilution on day 3-post activation and CD25 expression was evaluated by FACS staining 2 days after activation. For T cell differentiation experiments, naïve T cells were activated as above in the presence of Th1 (IL-12 (20 ng/ml) plus anti-IL-4 (1.5 μg/ml)), Th2 (IL-4 (50 ng/ml) plus anti-IFNγ (0.5 mg/ml)) or Th17 (TGFβ (3 ng/ml) plus IL-6 (30 ng/ml)) polarizing conditions plus titrating amounts of HF (1.25 nM-40 nM) or MAZ1310 (40 nM). […] All cytokine expression was determined by intracellular staining following PMA+Ionomycin+Brefeldin A re-stimulation and all data was normalized to control (MAZ1310)-treated cells. […] Biol., vol. 80:1-8 (2006).
(§1) Cytokines, antibodies and T cell culture: Purified CD4^+ CD25^− T cells were activated in vitro as previously described (I. M. Djuretic et al., Nat Immunol 8, 145 (2007)) using 0.3 μg/ml hamster anti-mouse CD3 (clone 145-2C11) (ATCC—Manassas, Va.) and 0.5 μg/ml hamster anti-mouse CD28 (BD Pharmingen, San Jose, Calif.). Activated cell cultures were differentiated using the following combinations of cytokines and antibodies: iTreg=recombinant human TGFβ1 (3 ng/ml; R&D systems, Minneapolis, Minn.), Th17=TGFβ1 (3 ng/ml) plus recombinant mouse IL-6 (30 ng/ml, R&D systems). Th1 and Th2 differentiation was performed as previously described. (I. M. Djuretic et al., Nat Immunol 8, 145 (2007)). Human IL-2 supernatant (National Cancer Institute) was used in culture at 0.01 U/ml and was added at 48 hours-post activation when T cells were split into tissue culture wells lacking CD3 and CD28 antibodies, with the exception of Th17 cultures that were maintained in the absence of IL-2. All reagents were added at the time of T cell activation and again at 48-hours post activation unless indicated otherwise. For some experiments, purified CD4^+ CD25^− T cells, CD8^+ T cells or B cells were labeled with 1 μM CFSE (Invitrogen) prior to activation in accordance with manufacturers instructions.
MAZ1310 was generated by chemical derivatization of halofuginone and was used at equal concentrations as a negative control.

[2] = tested on: TGFβ signaling; assay: TGFβ signaling in T and B cells (Smad phosphorylation, lymphocyte responses to TGFβ); format: cell-based, mouse; details: HF 10 nM (2.5-40 nM for Smad); SB-431542 10 μM
Method: DMSO, 10 nM HF, 10 nM MAZ1310 or 10 μM SB-431542 was added as indicated at the time of activation and intracellular cytokine staining was performed on expanded T cells on day 5 as in FIG. 14B
FIG. 15B is an illustration depicting the analysis of CD8^+ T cells that were activated in the presence or absence of TGFβ and cultured with DMSO, 10 nM HF, 10 nM MAZ1310 or 10 μM SB-431542. Expanded cells were restimulated on day 5 and intracellular staining was performed as above.
FIG. 15C is an illustration depicting the analysis of CFSE-labeled B cells that were activated by LPS stimulation in the presence or absence of TGFβ plus DMSO, 10 nM HF, 10 nM MAZ1310 or 10 μM SB-431542. Intracellular IL-6 production in B cells re-stimulated with PMA plus ionomycin, or cell-surface IgA expression was determined 4 days after activation by FACS analyses.
T cells were then activated in the presence or absence of 3 ng/ml TGFβ. Whole cell extracts were prepared after 1 hour of stimulation and western blot analyses were performed using the indicated antibodies.
Western blotting: Whole cell lysates were generated from T cells activated for the indicated times. For STAT3 and Smad2/3 western blots cells were harvested, washed in PBS and lysed in 50 mM Tris, pH 7.4, 0.1% SDS, 1% Triton-×100, 140 mM NaCl, 1 mM EDTA, 1 mM EGTA supplemented with protease inhibitors tablets (Roche—Germany), 1 mM NaF and 1 mM Na3VO4. […]

[3] = tested on: CD4+ CD25− T cells; assay: CD4+ T cell proliferation, CD25 upregulation, cytokine production, Th1/Th2/iTreg differentiation; format: cell-based, mouse; details: titrating concentrations of tunicamycin
Method: The dose-response of HF on CD4+ T cell proliferation, activation (i.e. CD25 upregulation) and differentiation to Th1, Th2 and Th17 lineages were evaluated. Purified murine naïve CD4+ CD25− T cells were activated using anti-CD3 (0.3 μg/ml) and anti-CD28 (0.5 μg/ml) antibodies and varying amounts of HF was added to each T cell culture condition (1.25 nM-40 nM). CD4+ T cell proliferation was monitored by CFSE dilution on day 3-post activation and CD25 expression was evaluated by FACS staining 2 days after activation. For T cell differentiation experiments, naïve T cells were activated as above in the presence of Th1 (IL-12 (20 ng/ml) plus anti-IL-4 (1.5 μg/ml)), Th2 (IL-4 (50 ng/ml) plus anti-IFNγ (0.5 mg/ml)) or Th17 (TGFβ (3 ng/ml) plus IL-6 (30 ng/ml)) polarizing conditions plus titrating amounts of HF (1.25 nM-40 nM) or MAZ1310 (40 nM). The percentage of Th17 cells, (IL-17^+ IFNγ^−) was evaluated on day 3 following activation, whereas the abundance of Th1 cells (IFNγ^+ IL-4) and Th2 cells (IL-4^+ IFNγ^−) was determined 5 days following activation. All cytokine expression was determined by intracellular staining following PMA+Ionomycin+Brefeldin A re-stimulation and all data was normalized to control (MAZ1310)-treated cells. […] Biol., vol. 80:1-8 (2006).
as §1
Detection of cytokine production: Cytokines secreted into media supernatant were measured using the mouse Th1/Th2 cytometric bead array (CBA, BD Pharmingen) in accordance with manufacturers instructions. Briefly, CD4^+ CD25^− T cells were activated in anti-CD3/anti-CD28-coated tissue culture wells and supernatants were collected at the indicated times. For detection of intracellular cytokines in murine cells, cultured T or B cells were stimulated with 10 nM PMA (Sigma) and […] (Sigma) for 4-5 hours in the presence of […] (Sigma). Stimulated cells were harvested, washed with PBS and fixed with PBS plus 4% paraformaldehyde at room temperature for 20 minutes. […]

[4] = tested on: unfolded protein response (Xbp-1 splicing); assay: Xbp-1 splicing / ER stress response in activated T cells; details: tunicamycin 1 μg/ml or 10 nM HF, 4 hours

## O=C(CC1NCCCC1O)Cn1cnc2cc(Br)c(Cl)cc2c1=O (single isomer, unassigned) [D-enantiomer of HF]
[1]
  inhibition of IL-17 expression by HPLC-purified enantiomers: more potently than a racemic mix

## O=C(CC1NCCCC1O)Cn1cnc2cc(Br)c(Cl)cc2c1=O (single isomer, unassigned) [L-enantiomer]
[1]
  inhibition of IL-17 expression by HPLC-purified enantiomers: completely inactive

## N[C@H](CO)Cc1c[nH]c2ccccc12 [L-tryptophanol]
[1]; 0.2 mM L-tryptophanol, TGFβ plus IL-6
  IL-17 production: impaired IL-17 production

## CC(C)(C)OC(=O)N1CCC[C@H](O)[C@H]1CC(=O)Cn1cnc2cc(Br)c(Cl)cc2c1=O [MAZ1310]
[1]; used at equal concentrations as HF
  activity of HF derivative used as negative control: inactive

## NC(=O)c1ccc(-c2nc(-c3ccc4c(c3)OCO4)c(-c3ccccn3)[nH]2)cc1 [SB-431542]
[2]
  TGFβ-induced Smad phosphorylation and other lymphocyte responses to TGFβ: abrogated all responses to TGFβ

## tunicamycin
[3]
  Th1 and Th2 differentiation: preferentially impaired
[4]
  Xbp-1 splicing: together with Xbp-1 splicing
[1]; titrating concentrations of tunicamycin
  IL-17 expression in T cells: little influence
